{"source": "the supplement of paper PMC10307832", "compound": "COc1cc(N2CCC(N3CCN(C)CC3)CC2)ccc1Nc1ncc(Cl)c(Nc2ccccc2S(=O)(=O)C(C)C)n1 [NVP-TAE684]", "assay": "relative viability (nuclei count vs DMSO), 5 days (fraction); higher = more cells survive", "method_in_brief": "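For viability, nuclei in each treated well were divided by nuclei in vehicle wells and the median across plates was taken. Lung cancer cell lines in 1536-well plates were pinned with five library-drug doses (not always all listed) spaced by √10, cultured 5 days without medium change, and imaged at 4× after Hoechst staining, with plates passing only at control CV below 25% and at least one doubling.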"}
{"cell line": "UMC-11", "values": [{"measurement": "relative viability", "setting": "0.2 µM", "value": 1.04}, {"measurement": "relative viability", "setting": "0.6325 µM", "value": 0.876}, {"measurement": "relative viability", "setting": "2 µM", "value": 0.465}]}
